Laboratory results as given in PubChem BioAssay (NCI).
Several values for one entry are separate records, joined by “and”; a condition that tells them apart may be missing. Identical values can stand only once.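 Assay format: 96-well plates, 48-hour exposure. GI50 = concentration required for 50% inhibition of growth. TGI marks complete inhibition of growth.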

Key:
Experiment in all cases: NCI tumour cell line growth inhibition, 48 h
COLO 205 colon = tested on: COLO 205 colon
DMS 114 small cell lung = tested on: DMS 114 small cell lung
DMS 273 small cell lung = tested on: DMS 273 small cell lung
HCT-116 colon = tested on: HCT-116 colon
K-562 leukemia = tested on: K-562 leukemia
NCI-H23 lung = tested on: NCI-H23 lung
SK-MEL-2 melanoma = tested on: SK-MEL-2 melanoma
SR leukemia = tested on: SR leukemia
NCI/ADR-RES ovarian = tested on: NCI/ADR-RES ovarian
PC-3 prostate = tested on: PC-3 prostate

SMILES: OCC(O)COc1c(Cl)ccc(Cl)c1Cl (stereo not given)
- TGI (COLO 205 colon): > 100 µM
- TGI (DMS 114 small cell lung): > 100 µM
- TGI (DMS 273 small cell lung): > 100 µM
- TGI (HCT-116 colon): > 100 µM
- TGI (K-562 leukemia): > 100 µM
- TGI (NCI-H23 lung): > 100 µM
- TGI (SK-MEL-2 melanoma): > 100 µM
- TGI (SR leukemia): > 100 µM

SMILES: Fc1ccc(F)c(C2SCc3nc4ccccc4n32)c1 (stereo not given)
- TGI (COLO 205 colon): > 100 µM
- TGI (DMS 114 small cell lung): 68.8 µM
- TGI (DMS 273 small cell lung): 64.3 µM
- TGI (HCT-116 colon): > 100 µM
- TGI (K-562 leukemia): > 100 µM
- TGI (NCI-H23 lung): > 100 µM
- TGI (SR leukemia): > 100 µM

SMILES: COc1ccc(/C=C/c2nc(=S)[nH][nH]2)cc1
- TGI (DMS 114 small cell lung): > 100 µM
- TGI (DMS 273 small cell lung): > 100 µM
- TGI (HCT-116 colon): > 100 µM
- TGI (K-562 leukemia): > 100 µM
- TGI (NCI-H23 lung): > 100 µM
- TGI (SK-MEL-2 melanoma): > 100 µM
- TGI (SR leukemia): > 100 µM

SMILES: N#CCC(=O)N/N=C1/C(=O)NC(=O)C(=O)C1c1nc2ccccc2s1 (stereo not given)
- TGI (COLO 205 colon): > 100 µM
- TGI (DMS 114 small cell lung): > 100 µM
- TGI (DMS 273 small cell lung): > 100 µM
- TGI (HCT-116 colon): > 100 µM
- TGI (K-562 leukemia): > 100 µM
- TGI (NCI-H23 lung): > 100 µM
- TGI (SK-MEL-2 melanoma): > 100 µM
- TGI (SR leukemia): > 100 µM

SMILES: COc1ccc(CCNCc2cccc(OC)c2OC)cc1OC
- TGI (COLO 205 colon): > 100 µM
- TGI (DMS 114 small cell lung): > 100 µM
- TGI (DMS 273 small cell lung): > 100 µM
- TGI (K-562 leukemia): > 100 µM
- TGI (NCI-H23 lung): > 100 µM
- TGI (SK-MEL-2 melanoma): > 100 µM

SMILES: COc1ccc(/C(Cl)=C(\C=O)c2ccc(OC)c(OC)c2)cc1OC
- TGI (COLO 205 colon): > 100 µM
- TGI (DMS 114 small cell lung): > 100 µM
- TGI (DMS 273 small cell lung): > 100 µM
- TGI (HCT-116 colon): > 100 µM
- TGI (K-562 leukemia): > 100 µM
- TGI (NCI-H23 lung): > 100 µM
- TGI (NCI/ADR-RES ovarian): > 100 µM
- TGI (PC-3 prostate): > 100 µM
- TGI (SK-MEL-2 melanoma): > 100 µM
- TGI (SR leukemia): > 100 µM

SMILES: CC(C)CC(CNC(Cc1ccc(Cl)cc1)C(N)=O)NC(=O)C(Cc1cnc[nH]1)NC(=O)CNC(=O)C(NC(=O)C(C)NC(=O)C(Cc1c[nH]c2ccccc12)NC(=O)C(CCC(=O)O)NC(=O)C(N)Cc1ccccc1)C(C)C (stereo not given)
- TGI (COLO 205 colon): > 133 µM
- TGI (DMS 114 small cell lung): > 133 µM
- TGI (DMS 273 small cell lung): > 133 µM
- TGI (HCT-116 colon): > 133 µM
- TGI (K-562 leukemia): > 133 µM
- TGI (NCI-H23 lung): > 133 µM
- TGI (SK-MEL-2 melanoma): > 133 µM
- TGI (SR leukemia): > 133 µM

SMILES: CC(=O)OCC(OC(C)=O)C(OC(C)=O)C(OC(C)=O)C(=O)CNn1c(-c2ccccc2)nc2ccc(Br)cc2c1=O (stereo not given)
- TGI (COLO 205 colon): > 100 µM
- TGI (DMS 114 small cell lung): > 100 µM
- TGI (DMS 273 small cell lung): > 100 µM
- TGI (HCT-116 colon): > 100 µM
- TGI (K-562 leukemia): > 100 µM
- TGI (NCI-H23 lung): > 100 µM
- TGI (SK-MEL-2 melanoma): > 100 µM
- TGI (SR leukemia): > 100 µM

SMILES: O=C(CCc1ccccc1)On1nnc2ccccc2c1=O
- TGI (COLO 205 colon): > 100 µM
- TGI (DMS 114 small cell lung): > 100 µM
- TGI (DMS 273 small cell lung): > 100 µM
- TGI (HCT-116 colon): > 100 µM
- TGI (K-562 leukemia): > 100 µM
- TGI (NCI-H23 lung): > 100 µM
- TGI (SK-MEL-2 melanoma): > 100 µM
- TGI (SR leukemia): > 100 µM

SMILES: O=C(CCC(=O)N/N=C/c1ccccc1O)N/N=C/c1ccccc1O
- TGI (COLO 205 colon): > 100 µM
- TGI (DMS 114 small cell lung): > 100 µM
- TGI (DMS 273 small cell lung): > 100 µM
- TGI (HCT-116 colon): > 100 µM
- TGI (K-562 leukemia): > 100 µM
- TGI (NCI-H23 lung): > 100 µM
- TGI (SK-MEL-2 melanoma): 81.3 µM
- TGI (SR leukemia): > 100 µM

SMILES: O=C1OC(c2ccccc2)=N/C1=C\c1c(O)cc(O)cc1O
- TGI (COLO 205 colon): > 100 µM
- TGI (DMS 114 small cell lung): > 100 µM
- TGI (DMS 273 small cell lung): > 100 µM
- TGI (HCT-116 colon): > 100 µM
- TGI (K-562 leukemia): > 100 µM
- TGI (NCI-H23 lung): > 100 µM
- TGI (SK-MEL-2 melanoma): > 100 µM

SMILES: CS(=O)(=O)OCCN(CCOS(C)(=O)=O)c1ccc(C=Nc2ccc3oc(=O)ccc3c2)cc1
- TGI (COLO 205 colon): 10.3 µM
- TGI (DMS 114 small cell lung): 22.3 µM
- TGI (HCT-116 colon): > 100 µM
- TGI (K-562 leukemia): > 100 µM
- TGI (NCI-H23 lung): 17.5 µM
- TGI (NCI/ADR-RES ovarian): 62.5 µM
- TGI (PC-3 prostate): 80.7 µM
- TGI (SK-MEL-2 melanoma): 37.7 µM
- TGI (SR leukemia): 40.1 µM

SMILES: Cc1cccc2c1Oc1cc(Cl)ccc1C2NC(=O)CN(C)C (stereo not given)
- TGI (COLO 205 colon): > 100 µM
- TGI (DMS 114 small cell lung): > 100 µM
- TGI (DMS 273 small cell lung): > 100 µM
- TGI (HCT-116 colon): > 100 µM
- TGI (K-562 leukemia): > 100 µM
- TGI (NCI-H23 lung): > 100 µM
- TGI (SR leukemia): > 100 µM

SMILES: Cc1[nH]c(=O)nc(CC(O)(c2ccccc2)c2ccccc2)c1-c1ccccc1
- TGI (COLO 205 colon): > 100 µM
- TGI (DMS 114 small cell lung): > 100 µM
- TGI (DMS 273 small cell lung): > 100 µM
- TGI (HCT-116 colon): > 100 µM
- TGI (K-562 leukemia): > 100 µM
- TGI (NCI-H23 lung): > 100 µM
- TGI (SK-MEL-2 melanoma): > 100 µM

SMILES: COC1(OC)CC2C(=O)N(Cc3ccccc3)C1CC2S(=O)(=O)c1ccccc1 (stereo not given)
- TGI (COLO 205 colon): > 100 µM
- TGI (DMS 114 small cell lung): > 100 µM
- TGI (DMS 273 small cell lung): > 100 µM
- TGI (HCT-116 colon): > 100 µM
- TGI (K-562 leukemia): > 100 µM
- TGI (NCI-H23 lung): > 100 µM
- TGI (SK-MEL-2 melanoma): > 100 µM

SMILES: O=C1C=CN(C2OC(CO)C(O)C2O)C(=O)C1 (stereo not given)
- GI50 (COLO 205 colon): 60.2 µM
- TGI (COLO 205 colon): 625 µM and > 2500 µM
- GI50 (DMS 273 small cell lung): > 625 µM
- TGI (DMS 273 small cell lung): > 2500 µM
- GI50 (HCT-116 colon): 2540 nM
- TGI (HCT-116 colon): 625 µM and > 2500 µM
- TGI (K-562 leukemia): > 2500 µM
- GI50 (NCI-H23 lung): > 625 µM and 356 µM
- TGI (NCI-H23 lung): > 2500 µM
- TGI (NCI/ADR-RES ovarian): 625 µM and > 2500 µM
- TGI (PC-3 prostate): > 2500 µM
- GI50 (SK-MEL-2 melanoma): 115 µM and 1040 µM
- TGI (SK-MEL-2 melanoma): 625 µM and > 2500 µM
- TGI (SR leukemia): > 2500 µM

SMILES: CCc1ccccc1-n1c2nc(=O)n(C)c(=O)c-2nc2ccccc21
- TGI (COLO 205 colon): 12.5 µM
- TGI (DMS 114 small cell lung): 14.2 µM
- TGI (DMS 273 small cell lung): 22.1 µM
- TGI (HCT-116 colon): 25.8 µM
- TGI (K-562 leukemia): 31.8 µM
- TGI (NCI-H23 lung): 18.2 µM
- TGI (SK-MEL-2 melanoma): 39.1 µM

SMILES: CCOC(=O)CC1=NC(=Nc2cc(Cl)ccc2Cl)SC1
- TGI (COLO 205 colon): > 100 µM
- TGI (DMS 114 small cell lung): > 100 µM
- TGI (DMS 273 small cell lung): > 100 µM
- TGI (HCT-116 colon): > 100 µM
- TGI (K-562 leukemia): > 100 µM
- TGI (NCI-H23 lung): > 100 µM
- TGI (SK-MEL-2 melanoma): > 100 µM

SMILES: O=C(N/C(=C\c1ccc(Br)cc1)c1nc2ccccc2s1)c1ccccc1
- TGI (COLO 205 colon): > 100 µM
- TGI (DMS 114 small cell lung): > 100 µM
- TGI (DMS 273 small cell lung): > 100 µM
- TGI (HCT-116 colon): > 100 µM
- TGI (K-562 leukemia): > 100 µM
- TGI (NCI-H23 lung): > 100 µM
- TGI (SK-MEL-2 melanoma): > 100 µM
